Drawing on PubChem BioAssay (NCI), this text covers TGI for 21 compounds.

What all share (assay): DTP human tumour cell line panel, 48 h
Test [1] concerns HCC-2998 colon.
Test [2] relates to MOLT-4 leukemia.
For test [3], the system named is 786-0 renal.
In test [4] the test system is T-47D breast.
In test [5] the test system is HOP-92 NSCLC.
The test system of test [6] is SK-MEL-28 melanoma.
Test [7] concerns SF-539 CNS.
For test [8], the system named is ACHN renal.
For test [9], the system named is SK-MEL-2 melanoma.
In test [10] the test system is A498 renal.
Test [11] deals with MALME-3M melanoma.
The test system of test [12] is LOX IMVI melanoma.
The subject of test [13] is CAKI-1 renal.
In test [14] the test system is SK-OV-3 ovarian.

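Tested at 5 concentrations; 48 h exposure; 96-well plates; endpoints linearly interpolated, else capped at highest concentration. TGI is the concentration that stops growth completely.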 Where a SMILES comes first, the peptide text is derived from it. The star is where a group is joined. Cbz = O=C(OCc1ccccc1)* Some results are limits rather than exact numbers.

Regarding `COc1ccc(C2c3cc4c(cc3OC(N3CCOCC3)C2C)OCO4)cc1` (stereo unspecified), the TGI in [1] is 67 µM; in [2] it was above 31.6 µM; in [3], above 100 µM; in test [4] it was 61.6 µM; in [5] it was 58.2 µM; in test [6], above 88 µM. The TGI is 68.6 µM in test [7]; above 100 µM in test [8]; above 71 µM in test [9]; 34.8 µM in test [10]; 40.7 µM in test [11]; above 79.5 µM in test [12]. Also, the total growth inhibition concentration (TGI) in [13] came out at 55.1 µM.
For the compound `COc1ccc(N2C(=O)C(=O)N(c3ccc(N=Nc4ccccc4)cc3)C2=S)cc1`, the TGI in test [1] was 30.1 µM; in test [2] it was above 100 µM; in [3], 35.5 µM; in [4] it was 45.1 µM; in test [5] it was 31.7 µM; in test [6] it was 41.2 µM. Further, the TGI in test [7] was 34.2 µM; in test [8], 34.4 µM; in [9], 35.1 µM; in [10], 52.3 µM; in [14] it was 68.4 µM; in [11], 33.8 µM. The TGI was found to be 37.2 µM in test [12] and 47.2 µM in [13].
Consider `C=C1CCCCCCCCC/C=C/1SCCCSC`, for which the TGI in [1], in [2], in test [3], in test [4], in [5] and in test [6] was above 100 µM throughout. Besides, the TGI in test [7], in test [8], in test [9], in test [10], in test [14] and in test [11] was above 100 µM throughout. Besides, the concentration for total growth inhibition (TGI) in test [12] and in test [13] was above 100 µM throughout.
On to `CCOC(=O)CCC(NC(=O)C(Cc1ccccc1)NC(=O)OCc1ccccc1)C(=O)OCC` (stereo not drawn) (Cbz-Phe-Glu(OEt)-OEt; configuration not given here), for which the total growth inhibition concentration (TGI) in test [1] was 32.1 µM; in [2] it was above 71.3 µM; in [3] it was 32 µM; in test [4], 32.2 µM; in test [5] it was 36.3 µM; in test [6], 33.2 µM. The TGI in [7] came to 37.6 µM; in test [8], 31.2 µM; in [9], 48 µM; in test [10], 43.9 µM; in test [14], 30.5 µM; in test [11], 33.1 µM. Besides, the TGI came to 27.9 µM in test [12] and 30.4 µM in [13].
Regarding `CC1(C)O[C@H]2OC(CO)C(N=[N+]=[N-])[C@H]2O1` (stereo partly specified), the TGI in [1], in test [2], in test [3], in test [4], in test [5] and in test [6] was above 100 µM in each case. For the same compound, the TGI in test [7], in [8], in test [9], in [10], in [11] and in test [12] was above 100 µM in each case. For the same compound, the concentration for total growth inhibition (TGI) in [13] was above 100 µM.
`O=C1OCC2OC(=O)c3cc(O)c(O)c(O)c3-c3c(O)c(O)c(O)c4c3C(=O)OC(C2OC(=O)c2cc(O)c(O)c(O)c2-c2c1cc(O)c(O)c2O)C1OC(=O)C2C4=C(O)C(=O)C23Oc2cc(O)c4c(c2[C@H]13)O[C@H](c1ccc(O)c(O)c1)[C@@H](O)C4` (stereo partly specified): the TGI in test [1] is above 100 µM; in test [2] it was 54 µM; in test [3] it was 56.7 µM; in test [4], 74.8 µM; in test [5] it was above 100 µM; in test [6] it was above 100 µM. Further, the TGI in test [8] is 56.6 µM; in test [9] it was 64.4 µM; in [10], above 100 µM; in [14], above 100 µM; in test [11], 72.2 µM; in test [12], 38.3 µM. For the same compound, the TGI in test [13] worked out at 30.7 µM.
`Cc1ccc(S(=O)(=O)C2=C(C(C)C)N=NC2(C)C)cc1`: the concentration for total growth inhibition (TGI) in [1] is above 100 µM; in test [2] it was above 100 µM; in test [3], above 100 µM; in test [4], above 100 µM; in [5] it was 69.6 µM; in test [6], above 100 µM. Further, the TGI in [7], in test [8], in test [9], in test [10], in test [12] and in test [13] was above 100 µM in each case.
As for `CC(=O)O[C@@]12CO[C@@H]1CC(O)[C@@]1(C)C(=O)[C@H](O)C3=C(C)C(O)C[C@@](O)(C(OC(=O)c4ccccc4)C12)C3(C)C` (stereo partly specified), the TGI in test [1] is 21.6 µM; in [2], above 31.6 µM; in test [3], above 100 µM; in [4], above 100 µM; in test [5], above 100 µM; in [7], 2.16 µM. In addition, the TGI in test [8], in test [10], in test [11], in test [12] and in test [13] was above 100 µM throughout.
Turning to `OC(C/C=N/N=C/CC(O)(C(F)(F)Cl)C(F)(F)Cl)(C(F)(F)Cl)C(F)(F)Cl`, the TGI in test [1], in [2], in test [3], in test [4], in [5] and in test [6] was above 10 µM in each case. Further, the TGI in [7], in test [8], in [9], in test [10], in [14] and in test [11] was above 10 µM throughout. Further, the TGI in test [12] and in test [13] was above 10 µM throughout.
Consider `COCn1cnc2c(=O)nc(SC)n(-c3ccccc3)c21`, for which the TGI in [1], in test [2], in test [3], in test [4], in [5] and in test [7] was above 100 µM each time. For the same compound, the TGI in test [8], in test [9], in [10], in test [14], in test [11] and in [12] was above 100 µM each time. Besides, the TGI in test [13] was above 100 µM.
Consider `COc1ccc2nc(-c3ccccc3)c(=O)[nH]c2c1`, for which the TGI in test [1], in test [2], in test [3], in [4], in test [5] and in test [6] was above 100 µM each time. The TGI in test [7], in test [8], in [10], in test [11], in test [12] and in test [13] was above 100 µM in each case.
For `CS(=O)(=O)N1CC(CCl)c2ccc(O)cc21` (stereo unspecified), the TGI in test [1] was 4.2 µM; in test [2], above 100 µM; in test [3], 11.6 µM; in [4], 48.2 µM; in test [5] it was 9.05 µM; in test [6], 14.2 µM. The TGI came to 5.05 µM in [7]; 12.4 µM in [8]; 8.94 µM in test [9]; 3.78 µM in test [10]; 5 µM in [11]; 14.4 µM in test [12]. In [13], this compound displayed a TGI of 12.3 µM.
In the case of `CC(=O)Nc1c(C(=N)C#N)ncn1CCO`, the total growth inhibition concentration (TGI) in [1], in [3], in [4], in test [5], in test [6] and in test [7] was above 100 µM throughout. Further, the TGI in test [8], in [9], in [10], in [14], in test [11] and in test [12] was above 100 µM in each case. The compound further showed a TGI in test [13] above 100 µM.
Turning to `COc1cccc(CC(=O)N2CCN(CCCc3ccccc3)CC2)c1`, the TGI in test [1] was above 100 µM; in test [2], above 100 µM; in test [3], above 100 µM; in test [4], 89.9 µM; in test [5], above 100 µM; in test [6], above 100 µM. In addition, the TGI in test [7], in test [8], in test [9], in test [10], in test [14] and in [12] was above 100 µM throughout. This compound also came in with a TGI in test [13] above 100 µM.
Regarding `COc1cc(Nc2nc3cc(C(F)(F)F)ccc3nc2C(=O)O)cc(OC)c1OC`, the TGI was above 100 µM in test [1]; above 100 µM in [2]; above 100 µM in test [3]; above 100 µM in test [4]; 85 µM in test [5]; above 100 µM in [6]. The TGI in [7] was above 100 µM; in [8], above 100 µM; in [9], 38.9 µM; in test [10], above 100 µM; in [11], above 100 µM; in test [12], above 100 µM. For the same compound, the TGI in [13] is 99 µM.
For `O=C1CCSCCC(=O)Nc2ccccc2N1`, the TGI in [2], in test [3], in [4], in [5], in test [6] and in test [7] was above 100 µM throughout. Moreover, the total growth inhibition concentration (TGI) in test [8], in test [9], in test [10], in test [14], in [11] and in [12] was above 100 µM in each case. This compound also came in with a TGI in test [13] above 100 µM.
On to `O=C1C(Br)=CC2(C=C1Br)CCNC1=C2C(=O)c2ncccc2C1=O`, for which the TGI in [1] amounted to 4.23 µM; in [3], 3.11 µM; in test [4], 4.48 µM; in [5], 4.38 µM; in [6] it was 2.17 µM; in [7] it was 0.841 µM. The TGI in [8] was found to be 1.94 µM; in [9], 0.38 µM; in test [10] it was 2.62 µM; in test [14], 5.8 µM; in test [11], 2.4 µM; in test [12] it was 1.53 µM. The same compound yielded a TGI in test [13] of 3.14 µM.
As to `CC(=O)c1c(N=[N+]=[N-])c2cccc3c2n(c1=O)CCC3`, the TGI in test [1] is 32 µM; in [2], 62.6 µM; in test [3], 33.5 µM; in [4] it was 60.4 µM; in [5] it was 67.7 µM; in test [7] it was above 100 µM. The TGI in test [8] is 54.2 µM; in test [9], 75.2 µM; in [10], 55.6 µM; in [14] it was above 100 µM; in test [11], 27.6 µM; in test [12] it was 40.8 µM. In addition, the TGI in test [13] is 57.8 µM.
Turning to `CC1(C)OP(=O)(O)C=C1Sc1ccc([N+](=O)[O-])cc1[N+](=O)[O-]`, the total growth inhibition concentration (TGI) in [1], in [3], in test [4], in test [5], in test [6] and in [7] was above 100 µM in each case. Moreover, the TGI in test [8], in test [9], in [10], in test [14], in test [11] and in test [12] was above 100 µM each time. The concentration for total growth inhibition (TGI) in test [13] was above 100 µM.
`CN1CCN(/C(N)=C(\C#N)C(=O)Nc2ccc(Cl)cc2)CC1`: the TGI in [1], in [2], in test [3], in test [4], in test [5] and in test [6] was above 100 µM in each case. Moreover, the TGI in test [7], in test [8], in test [9], in test [10], in [14] and in [12] was above 100 µM throughout. For the same compound, the TGI in [13] was above 100 µM.
Consider `COc1ccc(/C(Cl)=C(\C#N)c2ccc(OC)c(OC)c2)cc1OC`, for which the TGI in test [1], in test [2], in test [3], in test [4], in [5] and in test [7] was above 100 µM in each case. The total growth inhibition concentration (TGI) in test [8], in test [9], in test [10], in test [12] and in test [13] was above 100 µM throughout.
